Values of other authors, collected in patent US20170364630A1, “IDENTIFICATION OF CELLULAR ANTIMICROBIAL DRUG TABLETS THROUGH INTERACTOME ANALYSIS” (Vanderbilt University, priority 2014, published 2017).
Values after ≈ are worked out from the molar mass of the structure shown.

Legend:
calcium channel protein = details: Fish and Antzelevitch 2004
[1] = test system: Ebola-related genes (MERTK, FURIN, TYRO3, CTSB, NADK, POLH, TAPT1); details: CMap data, FIG. 8
HIV-1 [2] = details: approximate value, Guendel et al. 2010; read-out: IC50, inhibitor of HIV-1
hepatitis C virus (HCV) = details: cell-based quantitative high-throughput screening, He et al. 2015; read-out: EC50, anti-HCV activity
human enterovirus 71 = details: human enterovirus 71-infected mice
HIV-1 [3] = details: Szlavik et al. 2004
[4] = test system: poliovirus-infected HeLa cells
[5] = target: HIV-1 reverse transcriptase (Human immunodeficiency virus type 1 group M subtype B, UniProt P04585); details: Tan et al. 1991; read-out: IC50 against the HIV-1 reverse transcriptase

Structure (SMILES): CC[C@H]1[C@@H]2C[C@H]3[C@@H]4N(C)c5ccccc5[C@]45C[C@@H]([C@H]2[C@H]5O)N3[C@@H]1O [ajmaline]
- Concentration exerting comparable pharmacological activity by inhibiting calcium channel protein activity (calcium channel protein): ≤ 20 μM
- Up-regulated host genes following drug treatment [1]: MERTK, FURIN, TYRO3, FURIN, and CTSB

Structure (SMILES): O=C1Cc2c([nH]c3ccc([N+](=O)[O-])cc23)-c2ccccc2N1 [alsterpaullone]
- IC50 (HIV-1 [2]): ~0.15 µM

Structure (SMILES): CC1(C)S[C@@H]2[C@H](NC(=O)[C@H](NC(=O)N3CCNC3=O)c3ccccc3)C(=O)N2[C@H]1C(=O)O [azlocillin]
- Down-regulated host genes following drug treatment [1]: TAPT1 and TYRO3
- Up-regulated host genes following drug treatment [1]: NADK and POLH

Structure (SMILES): Clc1ccc(Cn2c(CN3CCCC3)nc3ccccc32)cc1 [clemizole]
- EC50 (hepatitis C virus (HCV)): 7.15 µM

Structure (SMILES): CN1CCCN(C(c2ccccc2)c2ccc(Cl)cc2)CC1 (stereo not drawn) [homochlorcyclizine]
- EC50 (hepatitis C virus (HCV)): 0.47 µM

Structure (SMILES): O[C@H]1[C@H]2c3cc4c(cc3CN3CCC(=C[C@@H]1O)[C@H]23)OCO4 [lycorine]
- Effect on mortality of infected mice (human enterovirus 71): reduces mortality
- IC50, anti-HIV-1 activity in MT4 cells (HIV-1 [3]): 0.4 µg/mL (≈ 1.39 µM)
- Effect on viral protein synthesis [4]: inhibits viral protein synthesis

Structure (SMILES): CN1C(C(=O)Nc2ccccn2)=C(O)c2ccccc2S1(=O)=O [piroxicam]
- Up-regulated host genes following drug treatment [1]: FURIN and MERTK

Structure (SMILES): C[n+]1cc2c3c(ccc2c2ccc4cc5c(cc4c21)OCO5)OCO3 [sanguinarine nitrate]
- IC50 [5]: 150 to 451 µM
